The values below come from patent publication US8440708B2, “Triazole-substituted arylamides as P2X3 and P2X2/3 antagonists” (Roche Palo Alto LLC, priority 2007, dated 2013).

Experiment [1] has as its target T1, human P2X2/3 receptor (Homo sapiens, UniProt P56373+Q9UBL9).
T1 construct: expressed in transfected cells; host or cells: CHO-K1
T1 sequence (Q9UBL9 1-471): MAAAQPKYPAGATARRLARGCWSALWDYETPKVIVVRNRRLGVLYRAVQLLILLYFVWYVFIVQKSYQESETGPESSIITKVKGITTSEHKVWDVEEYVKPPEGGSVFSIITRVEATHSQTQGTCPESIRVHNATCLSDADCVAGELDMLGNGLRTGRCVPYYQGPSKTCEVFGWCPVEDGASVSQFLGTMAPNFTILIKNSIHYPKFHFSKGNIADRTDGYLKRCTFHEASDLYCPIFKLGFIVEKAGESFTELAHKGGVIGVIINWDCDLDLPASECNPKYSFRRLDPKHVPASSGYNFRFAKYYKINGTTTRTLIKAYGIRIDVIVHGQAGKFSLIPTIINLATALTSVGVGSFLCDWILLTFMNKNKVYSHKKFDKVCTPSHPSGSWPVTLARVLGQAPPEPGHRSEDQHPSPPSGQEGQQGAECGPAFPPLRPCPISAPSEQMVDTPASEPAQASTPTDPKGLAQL
T1 sequence (P56373 1-397): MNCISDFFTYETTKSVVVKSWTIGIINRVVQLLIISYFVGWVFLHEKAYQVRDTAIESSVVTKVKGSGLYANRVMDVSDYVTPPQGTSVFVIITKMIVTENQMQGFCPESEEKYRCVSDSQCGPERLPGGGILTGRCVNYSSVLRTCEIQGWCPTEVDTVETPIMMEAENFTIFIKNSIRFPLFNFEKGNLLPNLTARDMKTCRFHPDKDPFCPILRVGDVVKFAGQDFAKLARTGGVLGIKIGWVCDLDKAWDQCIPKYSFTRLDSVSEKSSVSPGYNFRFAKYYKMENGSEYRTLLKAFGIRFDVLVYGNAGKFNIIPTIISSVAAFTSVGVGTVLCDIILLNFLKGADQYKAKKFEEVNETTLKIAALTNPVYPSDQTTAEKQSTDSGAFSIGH
Kind of experiment: P2X3/P2X2/3 FLIPR (Fluorometric Imaging Plate Reader) Assay, P2X2/3. It counts as cell-based. Particulars: CHO-K1 cells transfected with human P2X2/3; agonist α,β-meATP 5 μM; Table 1; read-out: P2X2/3 pKi (converted). The procedure, abridged:
(§1)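 Compounds were tested as antagonists of agonist-evoked calcium entry in CHO-K1 cells transfected with rat P2X3 or human P2X2/3. After 20 min with compound at room temperature, cells received α,β-meATP at 1 μM (P2X3) or 5 μM (P2X2/3), and peak fluorescence was recorded over 2 min.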

Experiment [2] has as its target T2, rat P2X3 receptor (Rattus norvegicus, UniProt P49654).
T2 construct: expressed in transfected cells; host or cells: CHO-K1
T2 sequence (P49654 1-397): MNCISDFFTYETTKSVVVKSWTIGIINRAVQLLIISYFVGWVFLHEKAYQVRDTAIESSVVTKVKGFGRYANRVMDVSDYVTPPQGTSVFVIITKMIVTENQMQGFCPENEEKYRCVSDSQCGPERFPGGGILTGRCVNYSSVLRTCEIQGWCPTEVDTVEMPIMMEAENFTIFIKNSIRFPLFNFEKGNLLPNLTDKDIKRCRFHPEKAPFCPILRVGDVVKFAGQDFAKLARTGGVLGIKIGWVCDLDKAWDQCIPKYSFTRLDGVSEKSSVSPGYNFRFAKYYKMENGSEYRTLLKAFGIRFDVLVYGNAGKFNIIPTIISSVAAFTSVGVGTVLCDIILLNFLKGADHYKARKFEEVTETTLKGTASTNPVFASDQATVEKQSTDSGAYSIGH
Kind of experiment: P2X3/P2X2/3 FLIPR (Fluorometric Imaging Plate Reader) Assay, P2X3. It counts as cell-based. Particulars: CHO-K1 cells transfected with rat P2X3; agonist α,β-meATP 1 μM; Table 1; read-out: P2X3 pKi (converted). The procedure, abridged: as §1

SMILES strings stand for the structures.

As to `Cc1ccc(-c2cc(C(=O)NC(C)c3cnccn3)cc(-n3ncnc3C(C)C)c2)nc1` (centres unmarked) [Compound 56, 3-(5-Isopropyl-[1,2,4]triazol-1-yl)-5-(5-methyl-pyridin-2-yl)-N-(1-pyrazin-2-yl-ethyl)-benzamide], the Ki in experiment [1] was 42.7 nM; in experiment [2] it was 4.57 nM.

As for `COC(C)c1ncnn1-c1cc(C(=O)N[C@@H](C)CO)cc(-c2ccc(C)cn2)c1` (some centres unmarked) [Compound 57, N-(2-Hydroxy-1-methyl-ethyl)-3-[5-(1-methoxy-ethyl)-[1,2,4]triazol-1-yl]-5-(5-methyl-pyridin-2-yl)-benzamide], the Ki in experiment [1] is 7940 nM; in experiment [2], 74.1 nM.

As for `COC(C)c1ncnn1-c1cc(C(=O)NC(C)c2cnccn2)cc(-c2ccc(C)cn2)c1` (centres unmarked) [Compound 58, 3-[5-(1-Methoxy-ethyl)-[1,2,4]triazol-1-yl]-5-(5-methyl-pyridin-2-yl)-N-(1-pyrazin-2-yl-ethyl)-benzamide], the Ki in experiment [1] is 132 nM; in experiment [2], 17 nM.

Regarding `Cc1ccc(-c2cc(C(=O)N[C@@H](C)CO)cc(-n3ncnc3C3CC3)c2)nc1` [Compound 59, 3-(5-Cyclopropyl-[1,2,4]triazol-1-yl)-N-(2-hydroxy-1-methyl-ethyl)-5-(5-methyl-pyridin-2-yl)-benzamide], the Ki is 6170 nM in experiment [1] and 77.6 nM in experiment [2].

As to `Cc1ccc(-c2cc(C(=O)NC(C)c3cnccn3)cc(-n3ncnc3C3CC3)c2)nc1` (centres unmarked) [Compound 60, 3-(5-Cyclopropyl-[1,2,4]triazol-1-yl)-5-(5-methyl-pyridin-2-yl)-N-(1-pyrazin-2-yl-ethyl)-benzamide], the Ki in experiment [1] was 389 nM; in experiment [2], 19.1 nM.

For `Cc1ccc(-c2cc(C(=O)NC(C)c3cnccn3)cc(-n3ncnc3C(C)N(C)C)c2)cc1` (centres unmarked) [Compound 61, 5-[5-(1-Dimethylamino-ethyl)-[1,2,4]triazol-1-yl]-4′-methyl-biphenyl-3-carboxylic acid (1-pyrazin-2-yl-ethyl)-amide], the figures for the Ki in experiment [1] and in experiment [2] were 51.3 nM and 5.25 nM, respectively.

For `Cc1ccc(-c2cc(C(=O)NCc3cnc(C)cn3)cc(-n3ncnc3C(C)N(C)C)c2)cc1` (centres unmarked) [Compound 62, 5-[5-(1-Dimethylamino-ethyl)-[1,2,4]triazol-1-yl]-4′-methyl-biphenyl-3-carboxylic acid (5-methyl-pyrazin-2-ylmethyl)-amide], the Ki in experiment [1] was 43.7 nM; in experiment [2], 5.25 nM.

Turning to `CCCc1ncnn1-c1cc(C(=O)NC(C)CN(C)C)cc(-c2ccc(C)cc2)c1` (centres unmarked) [Compound 63, 4′-Methyl-5-(5-propyl-[1,2,4]triazol-1-yl)-biphenyl-3-carboxylic acid (2-dimethylamino-1-methyl-ethyl)-amide], the Ki was 10000 nM in experiment [1] and 339 nM in experiment [2].

Take `Cc1ccc(-c2cc(C(=O)NC3CC3)cc(-n3ncnc3C(F)(F)F)c2)cc1` [Compound 64, 4′-Methyl-5-(5-trifluoromethyl-[1,2,4]triazol-1-yl)-biphenyl-3-carboxylic acid cyclopropylamide]: the results for the Ki in experiment [1] and in experiment [2] were 309 nM and 4.57 nM, respectively.

Consider `Cc1ccc(-c2cc(C(=O)N[C@@H](C)CO)cc(-n3ncnc3C(F)(F)F)c2)cc1` [Compound 65, 4′-Methyl-5-(5-trifluoromethyl-[1,2,4]triazol-1-yl)-biphenyl-3-carboxylic acid ((S)-2-hydroxy-1-methyl-ethyl)-amide], for which the Ki in experiment [1] is 2000 nM; in experiment [2], 6.76 nM.

Take `Cc1ccc(-c2cc(C(=O)NC(C)c3cnccn3)cc(-n3ncnc3C(F)(F)F)c2)cc1` (centres unmarked) [Compound 66, 4′-Methyl-5-(5-trifluoromethyl-[1,2,4]triazol-1-yl)-biphenyl-3-carboxylic acid (1-pyrazin-2-yl-ethyl)-amide]: the Ki was 40.7 nM in experiment [1] and 3.72 nM in experiment [2].

As to `Cc1ccc(-c2cc(C(=O)NCc3cnc(C)cn3)cc(-n3ncnc3C(F)(F)F)c2)cc1` [Compound 67, 4′-Methyl-5-(5-trifluoromethyl-[1,2,4]triazol-1-yl)-biphenyl-3-carboxylic acid (5-methyl-pyrazin-2-ylmethyl)-amide], the Ki is 49 nM in experiment [1] and 6.31 nM in experiment [2].

Turning to `Cc1ccc(-c2cc(C(=O)NCc3cnc(C)cn3)cc(-n3ncnc3C(C)(F)F)c2)nc1` [Compound 69, 3-[5-(1,1-Difluoro-ethyl)-[1,2,4]triazol-1-yl]-N-(5-methyl-pyrazin-2-ylmethyl)-5-(5-methyl-pyridin-2-yl)-benzamide], the figures for the Ki in experiment [1] and in experiment [2] were 26.9 nM and 1.86 nM, respectively.

As for `Cc1ccc(-c2cc(C(=O)NC(C)c3cnccn3)cc(-n3ncnc3C(C)(F)F)c2)nc1` (centres unmarked) [Compound 70, 3-[5-(1,1-Difluoro-ethyl)-[1,2,4]triazol-1-yl]-5-(5-methyl-pyridin-2-yl)-N-(1-pyrazin-2-yl-ethyl)-benzamide], the Ki in experiment [1] was 42.7 nM; in experiment [2], 1.91 nM.

On to `Cc1ccc(-c2cc(C(=O)N[C@@H](C)CO)cc(-n3ncnc3C(C)(F)F)c2)nc1` [Compound 71, 3-[5-(1,1-Difluoro-ethyl)-[1,2,4]triazol-1-yl]-N-((S)-2-hydroxy-1-methyl-ethyl)-5-(5-methyl-pyridin-2-yl)-benzamide], for which the Ki was 2290 nM in experiment [1] and 2.82 nM in experiment [2].

Take `Cc1ccc(-c2cc(C(=O)NC3CC3)cc(-n3ncnc3C(C)(F)F)c2)nc1` [Compound 72, N-Cyclopropyl-3-[5-(1,1-difluoro-ethyl)-[1,2,4]triazol-1-yl]-5-(5-methyl-pyridin-2-yl)-benzamide]: the Ki was 2510 nM in experiment [1] and 9.12 nM in experiment [2].

On to `C[C@@H](CO)NC(=O)c1cc(-c2ccc(Cl)cn2)cc(-n2ncnc2C(C)(F)F)c1` [Compound 73, 3-(5-Chloro-pyridin-2-yl)-5-[5-(1,1-difluoro-ethyl)-[1,2,4]triazol-1-yl]-N-((S)-2-hydroxy-1-methyl-ethyl)-benzamide], for which the Ki in experiment [1] was 2190 nM; in experiment [2], 8.91 nM.

For the molecule `CC(C)Cc1ncnn1-c1cc(C(=O)NC(C)c2cnccn2)cc(-c2ccc(Cl)cn2)c1` (centres unmarked) [Compound 74, 3-(5-Chloro-pyridin-2-yl)-5-(5-isobutyl-[1,2,4]triazol-1-yl)-N-(1-pyrazin-2-yl-ethyl)-benzamide], the Ki in experiment [1] is 60.3 nM; in experiment [2], 4.17 nM.

`CC(NC(=O)c1cc(-c2ccc(Cl)cn2)cc(-n2ncnc2C(F)F)c1)c1cnccn1` (centres unmarked) [Compound 76, 3-(5-Chloro-pyridin-2-yl)-5-(5-difluoromethyl-[1,2,4]triazol-1-yl)-N-(1-pyrazin-2-yl-ethyl)-benzamide]: the Ki in experiment [1] is 741 nM; in experiment [2], 10.2 nM.

For `Cc1cnc(CNC(=O)c2cc(-c3ccc(Cl)cn3)cc(-n3ncnc3C(F)F)c2)cn1` [Compound 77, 3-(5-Chloro-pyridin-2-yl)-5-(5-difluoromethyl-[1,2,4]triazol-1-yl)-N-(5-methyl-pyrazin-2-ylmethyl)-benzamide], the figures for the Ki in experiment [1] and in experiment [2] were 724 nM and 9.77 nM, respectively.

`C[C@@H](CO)NC(=O)c1cc(-c2ccc(Cl)cn2)cc(-n2ncnc2C(F)F)c1` [Compound 78, 3-(5-Chloro-pyridin-2-yl)-5-(5-difluoromethyl-[1,2,4]triazol-1-yl)-N-((S)-2-hydroxy-1-methyl-ethyl)-benzamide]: the Ki in experiment [1] is 8710 nM; in experiment [2], 75.9 nM.

On to `CC(NC(=O)c1cc(-c2ccc(Cl)cn2)cc(-n2ncnc2C(F)(F)F)c1)c1cnccn1` (centres unmarked) [Compound 79, 3-(5-Chloro-pyridin-2-yl)-N-(1-pyrazin-2-yl-ethyl)-5-(5-trifluoro-methyl-[1,2,4]triazol-1-yl)-benzamide], for which the Ki in experiment [1] is 372 nM; in experiment [2], 8.51 nM.
